Results on 16 compounds are retold here after US12310975B2, “Modulators of BCL6 proteolysis and associated methods of use” (Arvinas Operations, Inc., priority 2019, dated 2025).

The target in assay [1] is T1, BCL6 (Homo sapiens (Human), UniProt P41182). Briefly: BCL6 TR-FRET assay (BCL6-Avitag-Biotin / BCoR-Cy5 peptide). The assay is classed as binding. To be noted: read-out: IC50. Put shortly: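 TR-FRET displacement assay: biotinylated His-SUMO-BCL6-Avitag (2 nM) pre-incubated 30 min at room temperature with compound (12-point 3-fold titration), then BCoR-Cy5 peptide (100 nM) and Eu-streptavidin (2 nM) added. Buffer: 50 mM HEPES pH 7.5, 125 mM NaCl, 0.01% Triton X, glutathione or DTT, 0.03% BSA. Read after 2 h.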

In assay [2] the target is T1, BCL6. Briefly: Immunofluorescence high content imaging of BCL6 degradation in T47D cells. The assay is classed as cell-based. To be noted: T47D. Put shortly:
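T47D cells were treated 3 days at 37 °C with an 11-point 3-fold dilution series (top 0.1 or 1 μM), then fixed, permeabilized and immunostained for BCL6 with Alexa-488 secondary, CellMask and Hoechst. BCL6 signal was imaged at 10×, 4 fields/well, with top-hat smoothing.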

Molecules are shown by their SMILES. pIC50: −log10 of the molar value.

Turning to `CNC(=O)COc1cc2cc(Nc3nc(N(C)C)ncc3Cl)ccc2n(CCCOc2ccc3c(c2)C(=O)N(C2CCC(=O)NC2=O)C3=O)c1=O` (centres unmarked) [compound 469, 2-[(6-{[5-chloro-2-(dimethylamino)pyrimidin-4-yl]amino}-1-(3-{[2-(2,6-dioxopiperidin-3-yl)-1,3-dioxo-2,3-dihydro-1H-isoindol-5-yl]oxy}propyl)-2-oxo-1,2-dihydroquinolin-3-yl)oxy]-N-methylacetamide], on BCL6 [1], the negative logarithm of the IC50 (pIC50) was 7.30 to 8.00. Moreover, the Dmax at BCL6 [2] was < 50%.

With `CNC(=O)COc1cc2cc(Nc3nc(N(C)C)ncc3Cl)ccc2n(CCOc2ccc3c(c2)C(=O)N(C2CCC(=O)NC2=O)C3=O)c1=O` (centres unmarked) [compound 470, 2-[(6-{[5-chloro-2-(dimethylamino)pyrimidin-4-yl]amino}-1-(2-{[2-(2,6-dioxopiperidin-3-yl)-1,3-dioxo-2,3-dihydro-1H-isoindol-5-yl]oxy}ethyl)-2-oxo-1,2-dihydroquinolin-3-yl)oxy]-N-methylacetamide], the negative logarithm of the IC50 (pIC50) at BCL6 [1] was 7.30 to 8.00. Besides, the Dmax at BCL6 [2] is < 50%.

Take `CNC(=O)COc1cc2cc(Nc3nc(N4CCC(O[C@H]5C[C@H](COc6cccc7c6C(=O)N(C6CCC(=O)NC6=O)C7=O)N(C)C5)CC4)ncc3Cl)ccc2n(C(C)C)c1=O` (stereo partly drawn) [compound 471, 2-[(6-{[5-chloro-2-(4-{[(3S,5R)-5-({[2-(2,6-dioxopiperidin-3-yl)-1,3-dioxo-2,3-dihydro-1H-isoindol-4-yl]oxy}methyl)-1-methylpyrrolidin-3-yl]oxy}piperidin-1-yl)pyrimidin-4-yl]amino}-2-oxo-1-(propan-2-yl)-1,2-dihydroquinolin-3-yl)oxy]-N-methylacetamide]: the negative logarithm of the IC50 (pIC50) at BCL6 [1] was 7.30 to 8.00. In addition, the Dmax at BCL6 [2] is < 50%.

For the compound `CNC(=O)COc1cc2cc(Nc3nc(N4CCN(CC5CCN(c6cc(OC)cc(C(=O)NC7CCC(=O)NC7=O)c6F)CC5)CC4)ncc3Cl)ccc2n(C(C)C)c1=O` (centres unmarked) [compound 473, 3-[4-({4-[5-chloro-4-({3-[(methylcarbamoyl)methoxy]-2-oxo-1-(propan-2-yl)-1,2-dihydroquinolin-6-yl}amino)pyrimidin-2-yl]piperazin-1-yl}methyl)piperidin-1-yl]-N-(2,6-dioxopiperidin-3-yl)-2-fluoro-5-methoxybenzamide], at BCL6 [1], the pIC50 was > 8.00. Besides, the greatest degradation seen (Dmax) on BCL6 [2] was 50 to 70%.

For `CNC(=O)COc1cc2cc(Nc3nc(N4CCOCC4)ncc3Cl)ccc2n(CCCOc2ccc3c(c2)C(=O)N(C2CCC(=O)NC2=O)C3=O)c1=O` (centres unmarked) [compound 474, 2-[(6-{[5-chloro-2-(morpholin-4-yl)pyrimidin-4-yl]amino}-1-(3-{[2-(2,6-dioxopiperidin-3-yl)-1,3-dioxo-2,3-dihydro-1H-isoindol-5-yl]oxy}propyl)-2-oxo-1,2-dihydroquinolin-3-yl)oxy]-N-methylacetamide], the negative logarithm of the IC50 (pIC50) at BCL6 [1] is 7.00 to 7.30. The Dmax at BCL6 [2] is < 50%.

Regarding `CNC(=O)COc1cc2cc(Nc3nc(N4CCOCC4)ncc3Cl)ccc2n(CCOc2ccc3c(c2)C(=O)N(C2CCC(=O)NC2=O)C3=O)c1=O` (centres unmarked) [compound 475, 2-[(6-{[5-chloro-2-(morpholin-4-yl)pyrimidin-4-yl]amino}-1-(2-{[2-(2,6-dioxopiperidin-3-yl)-1,3-dioxo-2,3-dihydro-1H-isoindol-5-yl]oxy}ethyl)-2-oxo-1,2-dihydroquinolin-3-yl)oxy]-N-methylacetamide], the pIC50 at BCL6 [1] was ≤ 7.00. The Dmax on BCL6 [2] is ≥ 70%.

For `CNC(=O)COc1cc2cc(Nc3nc(N4CCC(O[C@H]5C[C@@H](COc6cccc7c6C(=O)N(C6CCC(=O)NC6=O)C7=O)N(C)C5)CC4)ncc3Cl)ccc2n(C(C)C)c1=O` (stereo partly drawn) [compound 476, 2-[(6-{[5-chloro-2-(4-{[(3S,5S)-5-({[2-(2,6-dioxopiperidin-3-yl)-1,3-dioxo-2,3-dihydro-1H-isoindol-4-yl]oxy}methyl)-1-methylpyrrolidin-3-yl]oxy}piperidin-1-yl)pyrimidin-4-yl]amino}-2-oxo-1-(propan-2-yl)-1,2-dihydroquinolin-3-yl)oxy]-N-methylacetamide], the pIC50 on BCL6 [1] is 7.30 to 8.00. The Dmax at BCL6 [2] was < 50%.

Consider `CNC(=O)COc1cc2cc(Nc3nc(N4CCC(O[C@H]5C[C@@H](Oc6cccc7c6C(=O)N(C6CCC(=O)NC6=O)C7=O)CN(C)C5)CC4)ncc3Cl)ccc2n(C(C)C)c1=O` (stereo partly drawn) [compound 477, 2-[(6-{[5-chloro-2-(4-{[(3S,5R)-5-{[2-(2,6-dioxopiperidin-3-yl)-1,3-dioxo-2,3-dihydro-1H-isoindol-4-yl]oxy}-1-methylpiperidin-3-yl]oxy}piperidin-1-yl)pyrimidin-4-yl]amino}-2-oxo-1-(propan-2-yl)-1,2-dihydroquinolin-3-yl)oxy]-N-methylacetamide], for which the pIC50 at BCL6 [1] was 7.30 to 8.00. The greatest degradation seen (Dmax) at BCL6 [2] was < 50%.

In the case of `CNC(=O)COc1cc2cc(Nc3nc(N4CCC(C5(N6CCC(c7cc(OC)cc(C(=O)NC8CCC(=O)NC8=O)c7F)CC6)CC5)CC4)ncc3Cl)ccc2n(C)c1=O` (centres unmarked) [compound 480, 3-[1-(1-{1-[5-chloro-4-({1-methyl-3-[(methylcarbamoyl)methoxy]-2-oxo-1,2-dihydroquinolin-6-yl}amino)pyrimidin-2-yl]piperidin-4-yl}cyclopropyl)piperidin-4-yl]-N-(2,6-dioxopiperidin-3-yl)-2-fluoro-5-methoxybenzamide], the pIC50 on BCL6 [1] was 7.30 to 8.00. In addition, on BCL6 [2], the Dmax was < 50%.

Consider `CNC(=O)COc1cc2cc(Nc3nc(N4CCN(C(C)(C)C5CCN(c6c(OC)ccc(C(=O)NC7CCC(=O)NC7=O)c6F)CC5)CC4)ncc3Cl)ccc2n(C)c1=O` (centres unmarked) [compound 481, 3-[4-(2-{4-[5-chloro-4-({1-methyl-3-[(methylcarbamoyl)methoxy]-2-oxo-1,2-dihydroquinolin-6-yl}amino)pyrimidin-2-yl]piperazin-1-yl}propan-2-yl)piperidin-1-yl]-N-(2,6-dioxopiperidin-3-yl)-2-fluoro-4-methoxybenzamide], for which the pIC50 at BCL6 [1] is > 8.00. Moreover, at BCL6 [2], the Dmax was ≥ 70%.

As for `CNC(=O)COc1cc2cc(Nc3nc(N4CCC5(CC4)CC(CN4CCN(c6ccc7c(c6)C(=O)N(C6CCC(=O)NC6=O)C7=O)CC4)C5)ncc3Cl)ccc2n(C(C)C)c1=O` (centres unmarked) [compound 483, 2-{[6-({5-chloro-2-[2-({4-[2-(2,6-dioxopiperidin-3-yl)-1,3-dioxo-2,3-dihydro-1H-isoindol-5-yl]piperazin-1-yl}methyl)-7-azaspiro[3.5]nonan-7-yl]pyrimidin-4-yl}amino)-2-oxo-1-(propan-2-yl)-1,2-dihydroquinolin-3-yl]oxy}-N-methylacetamide], the negative logarithm of the IC50 (pIC50) on BCL6 [1] is > 8.00. In addition, the Dmax at BCL6 [2] lay within 50 to 70%.

Regarding `CNC(=O)COc1cc2cc(Nc3nc(N4CCC5(CC4)CC(CN4CCN(c6cccc7c6C(=O)N(C6CCC(=O)NC6=O)C7=O)CC4)C5)ncc3Cl)ccc2n(C(C)C)c1=O` (centres unmarked) [compound 484, 2-{[6-({5-chloro-2-[2-({4-[2-(2,6-dioxopiperidin-3-yl)-1,3-dioxo-2,3-dihydro-1H-isoindol-4-yl]piperazin-1-yl}methyl)-7-azaspiro[3.5]nonan-7-yl]pyrimidin-4-yl}amino)-2-oxo-1-(propan-2-yl)-1,2-dihydroquinolin-3-yl]oxy}-N-methylacetamide], the pIC50 on BCL6 [1] was > 8.00. The maximal degradation (Dmax) on BCL6 [2] was in the range of 50 to 70%.

In the case of `CNC(=O)COc1cc2cc(Nc3nc(N4CCN(CC5CCN(c6cccc7c6C(=O)N(C6CCC(=O)NC6=O)C7=O)CC5)CC4)ncc3Cl)ccc2n(CC2COC2)c1=O` (centres unmarked) [compound 485, 2-{[6-({5-chloro-2-[4-({1-[2-(2,6-dioxopiperidin-3-yl)-1,3-dioxo-2,3-dihydro-1H-isoindol-4-yl]piperidin-4-yl}methyl)piperazin-1-yl]pyrimidin-4-yl}amino)-1-[(oxetan-3-yl)methyl]-2-oxo-1,2-dihydroquinolin-3-yl]oxy}-N-methylacetamide], at BCL6 [1], the pIC50 is > 8.00. The greatest degradation seen (Dmax) at BCL6 [2] is 50 to 70%.

For the compound `CNC(=O)COc1cc2cc(Nc3nc(N4CCC(C5(N6CCC(c7ccc8c(c7)C(=O)N(C7CCC(=O)NC7=O)C8=O)CC6)CC5)CC4)ncc3Cl)ccc2n(C(C)C)c1=O` (centres unmarked) [compound 488, 2-{[6-({5-chloro-2-[4-(1-{4-[2-(2,6-dioxopiperidin-3-yl)-1,3-dioxo-2,3-dihydro-1H-isoindol-5-yl]piperidin-1-yl}cyclopropyl)piperidin-1-yl]pyrimidin-4-yl}amino)-2-oxo-1-(propan-2-yl)-1,2-dihydroquinolin-3-yl]oxy}-N-methylacetamide], the negative logarithm of the IC50 (pIC50) at BCL6 [1] is > 8.00. For the same compound, on BCL6 [2], the Dmax is 50 to 70%.

For the compound `CNC(=O)COc1cc2cc(Nc3nc(N4CCC(CN5CCC6(CC5)CCN(c5ccc7c(c5)C(=O)N(C5CCC(=O)NC5=O)C7=O)C6)CC4)ncc3Cl)ccc2n(C(C)C)c1=O` (centres unmarked) [compound 489, 2-{[6-({5-chloro-2-[4-({2-[2-(2,6-dioxopiperidin-3-yl)-1,3-dioxo-2,3-dihydro-1H-isoindol-5-yl]-2,8-diazaspiro[4.5]decan-8-yl}methyl)piperidin-1-yl]pyrimidin-4-yl}amino)-2-oxo-1-(propan-2-yl)-1,2-dihydroquinolin-3-yl]oxy}-N-methylacetamide], at BCL6 [1], the pIC50 is > 8.00. In addition, the Dmax on BCL6 [2] was 50 to 70%.

Turning to `CNC(=O)COc1cc2cc(Nc3nc(N4CCC5(CCN(CC6CCN(c7ccc8c(c7)C(=O)N(C7CCC(=O)NC7=O)C8=O)CC6)CC5)C4)ncc3Cl)ccc2n(C(C)C)c1=O` (centres unmarked) [compound 490, 2-{[6-({5-chloro-2-[8-({1-[2-(2,6-dioxopiperidin-3-yl)-1,3-dioxo-2,3-dihydro-1H-isoindol-5-yl]piperidin-4-yl}methyl)-2,8-diazaspiro[4.5]decan-2-yl]pyrimidin-4-yl}amino)-2-oxo-1-(propan-2-yl)-1,2-dihydroquinolin-3-yl]oxy}-N-methylacetamide], on BCL6 [1], the pIC50 was > 8.00. Besides, on BCL6 [2], the Dmax was in the range of 50 to 70%.
